Test results taken from patent US12508271B2, “Prodrugs of 2-PMPA for healthy tissue protection during PSMA-targeted cancer imaging or radiotherapy” (The Johns Hopkins University, priority 2017, dated 2025).
One block for each compound: values may come before it.

How the values were obtained:
[1] = Comparative tissue distribution of 2-PMPA prodrugs versus equimolar 2-PMPA in nude mice (kidney 2-PMPA by LC/MS-MS); assay type: in vivo; conditions: 5 mg/kg or molar equivalent, i.p., 30 minutes
Protocol: Nude mice were administered either 2-PMPA or the prodrugs LTP-144 or Tris-POC-2-PMPA (compound 10 of Table 1) (5 mg/kg or molar equivalent, i.p.) prior to brief isoflurane anesthesia, saline perfusion, and sacrificed 30 minutes later. Kidneys were removed and flash frozen in liquid nitrogen. Each tissue sample was assessed for 2-PMPA concentration using previously described LC/MS-MS based bioanalysis (Majer et al., 2016). In addition, a prodrug of the urea-based PSMA ligand ZJ-43 (with similar pro-moiety modifications to Tris-POC-2-PMPA) was tested using similar methods.

[2] = biological target: T1, renal PSMA (Mus musculus, UniProt O35409); experiment: Displacement study of 68Ga-PSMA-617 in non-tumor-bearing NMRI mice (PET); assay type: in vivo; conditions: 0.5 mg/kg i.v. 1 h after tracer, scan 2 h after tracer
T1 construct: from tissue; host or cells: kidney of living NMRI mice (PET)
Protocol: ^68Ga-PSMA-617 was synthesized as described previously (Afshar-Oromieh et al., 2015). The specific activity of the radiopharmaceutical used in the presented animal study (20 MBq of ^68Ga tagged to 0.2-0.8 μg of precursor peptide) corresponds to the one used in clinical application (Afshar-Oromieh et al., 2015). Three non-tumor-bearing NMRI mice were injected via the tail vein with 20 MBq of ^68Ga-PSMA-617. 1 h post injection, enough time for specific tracer binding to renal PSMA and clearance of unbound tracer from the kidney calices, mice were imaged in a dedicated small animal PET-scanner (Siemens, Inveon) to quantify kidney uptake (baseline-scan). Immediately after the baseline scan 16 μg Tris-POC-2-PMPA (0.5 mg/kg*32.1 g bodyweight (BW) of all mice) in 100 μL saline was injected via the tail vein. Another 1 h later, i.e., 2 h after injection of the PET-tracer, ^68Ga-PSMA-617 kidney uptake was re-evaluated per animal PET (displacement-scan).

[3] = test system: PSMA; experiment: Displacement study of 68Ga-PSMA-617 in LNCaP tumor xenograft bearing nude mice (PET); assay type: in vivo; conditions: average of two animals, 0.5 or 0.05 mg/kgBW after baseline scan; baseline mSUV 1.02; saline control mSUV 0.84
Protocol: (§1) 5*10^6 LNCaP cells (BD Biosciences) were implanted behind the left shoulder of n=3 nude mice; tumors reached a diameter of approximately 1-cm diameter 8-12 weeks after inoculation. Baseline uptake of the radiopharmaceutical in kidneys and tumor was quantified per animal PET-scan (Siemens, Inveon) 1 h after injection of ^68Ga-PSMA-617 (10-40 MBq ^68Ga tagged to […] PSMA-617 precursor). Immediately after the baseline scan animals were injected with 0.5 mg/kgBW or 0.05 mg/kgBW Tris-POC-2-PMPA in […] saline or pure saline as control. Another 1 h later, i.e., 2 h after injection of the PET-tracer, ^68Ga-PSMA-617 uptake in kidneys and tumor were re-evaluated per second animal PET (displacement scan).

[4] = biological target: PSMA (Mus musculus, UniProt O35409); experiment: as above; assay type: in vivo; design: from tissue; host or cells: kidney of nude mice bearing LNCaP xenografts (PET)
Protocol: as §1

[5] = biological target: T2, PSMA (Homo sapiens, UniProt Q04609); experiment: Kidney and salivary gland uptake of 68Ga-PSMA-617 in healthy human subject with and without Tris-POC-2-PMPA pre-dosing (PET); assay type: in vivo; design: from tissue; host or cells: kidneys, salivary and lacrimal glands, and tumour lesions/metastases of living human subjects (PET / gamma imaging)
Protocol: From a couple of patients who had been imaged (Siemens, mCT) 0.1 h, 1 h, 2 h, 3 h and 4 h after injection of ^68Ga-PSMA-617 previously (Afshar-Oromieh et al., 2015), one subject without relevant tumor-load (<5 mL) was chosen to quantify the physiologic spontaneous tracer uptake in kidneys and salivary gland during the examination time. For the intervention experiment, one healthy volunteer was injected with […] (0.05 mg/kgBW) Tris-POC-2-PMPA solution (in 2.5 mL of 30% ethanol) 15 min before application of the PET-tracer. Again, PET-scans (Siemens, mCT) were performed 0.1 h, 1 h, 2 h, 3 h and 4 h after injection of ^68Ga-PSMA-617 and quantified per SUVmax for tracer uptake in kidneys and salivary glands over time.

[6] = biological target: T2, PSMA; experiment: Tumor, kidney and salivary gland uptake of 68Ga-PSMA-617 in a prostate cancer patient with and without Tris-POC-2-PMPA pre-dosing (PET); assay type: in vivo; design: from tissue; host or cells: kidneys, salivary and lacrimal glands, and tumour lesions/metastases of living human subjects (PET / gamma imaging)
Protocol: One patient was PET imaged 1 h after injection of ^68Ga-PSMA-617 and quantified per SUVmax for tracer uptake in tumor, kidneys and salivary glands. On a subsequent day, the same patient was imaged using the same protocol but with pretreatment of 10 mg (0.1 mg/kgBW) Tris-POC-2-PMPA solution (in 2.5 mL of 30% ethanol) 15 min before application of the PET-tracer.

[7] = biological target: T2, PSMA; experiment: 177Lu-PSMA-617 radiation dosimetry in mCRPC patients with Tris-POC-2-PMPA pre-treatment versus historical controls; assay type: in vivo; design: from tissue; host or cells: kidneys, salivary and lacrimal glands, and tumour lesions/metastases of living human subjects (PET / gamma imaging); conditions: for 177Lu-PSMA-617 absorbed dose, kidneys / 177Lu-PSMA-617 absorbed dose, parotid gland / 177Lu-PSMA-617 absorbed dose, submandibular gland / 177Lu-PSMA-617 mean dose to metastases: 15 minutes prior to infusion
Protocol: ^177Lu-PSMA-617 was offered as surrogate therapy in accordance with the updated Declaration of Helsinki, paragraph-37 “Unproven Interventions in Clinical Practice,” and in accordance with German regulations for “compassionate use,” which includes priority of all approved treatments (without contraindications) and confirmation of the indication by both a nuclear medicine physician and an external expert in urology or oncology. No systematic patient selection was performed, except all patients had to present with a PSMA-positive tumor phenotype based on PSMA imaging. All patients were informed about the experimental nature of this therapy and gave written informed consent. The institutional review board approved this retrospective study. Two patients were pre-treated with Tris-POC-2-PMPA prior to administration of ^177Lu-PSMA-617. […] Dosimetry data from historical controls presented herein are derived from patients treated under the same protocol at our center as previously reported (J Nucl Med. 2016 August; 57(8):1170-6.). All dosimetry methods were conducted as previously described in that report (J Nucl Med. 2016 August; 57(8):1170-6.).

[8] = cited from earlier work
[9] = biological target: T2, PSMA; design: from tissue; host or cells: kidneys, salivary and lacrimal glands, and tumour lesions/metastases of living human subjects (PET / gamma imaging); conditions: without Tris-POC-2-PMPA; same center (Kratochwil et al., 2016); cited from earlier work
[10] = 10 mg, i.v., 15 minutes prior to tracer, PET 1 h p.i., same patient
[11] = PET 1 hour after administration, no Tris-POC-2-PMPA
[12] = other mCRPC patients, literature

T2 sequence (Q04609 whole entry): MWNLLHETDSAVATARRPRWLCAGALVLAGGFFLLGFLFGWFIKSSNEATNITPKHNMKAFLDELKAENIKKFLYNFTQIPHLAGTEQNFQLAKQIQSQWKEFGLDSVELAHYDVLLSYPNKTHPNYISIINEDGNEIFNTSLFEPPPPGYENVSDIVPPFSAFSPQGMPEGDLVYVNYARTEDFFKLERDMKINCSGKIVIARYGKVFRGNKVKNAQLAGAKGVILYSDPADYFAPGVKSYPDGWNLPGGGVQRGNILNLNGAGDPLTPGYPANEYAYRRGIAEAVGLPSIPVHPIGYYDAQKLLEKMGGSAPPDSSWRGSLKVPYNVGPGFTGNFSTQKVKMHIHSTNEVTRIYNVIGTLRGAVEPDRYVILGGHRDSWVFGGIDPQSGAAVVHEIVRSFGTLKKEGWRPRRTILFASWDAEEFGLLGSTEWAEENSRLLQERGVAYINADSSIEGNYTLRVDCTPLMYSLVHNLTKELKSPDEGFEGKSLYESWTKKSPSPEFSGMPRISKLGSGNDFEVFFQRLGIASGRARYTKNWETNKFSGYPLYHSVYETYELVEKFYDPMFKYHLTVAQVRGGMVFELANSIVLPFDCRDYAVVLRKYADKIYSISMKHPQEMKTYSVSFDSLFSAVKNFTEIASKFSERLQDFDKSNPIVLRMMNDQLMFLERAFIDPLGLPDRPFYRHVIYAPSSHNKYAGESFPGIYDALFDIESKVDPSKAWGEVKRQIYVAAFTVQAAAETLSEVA
T1 sequence (O35409 whole entry): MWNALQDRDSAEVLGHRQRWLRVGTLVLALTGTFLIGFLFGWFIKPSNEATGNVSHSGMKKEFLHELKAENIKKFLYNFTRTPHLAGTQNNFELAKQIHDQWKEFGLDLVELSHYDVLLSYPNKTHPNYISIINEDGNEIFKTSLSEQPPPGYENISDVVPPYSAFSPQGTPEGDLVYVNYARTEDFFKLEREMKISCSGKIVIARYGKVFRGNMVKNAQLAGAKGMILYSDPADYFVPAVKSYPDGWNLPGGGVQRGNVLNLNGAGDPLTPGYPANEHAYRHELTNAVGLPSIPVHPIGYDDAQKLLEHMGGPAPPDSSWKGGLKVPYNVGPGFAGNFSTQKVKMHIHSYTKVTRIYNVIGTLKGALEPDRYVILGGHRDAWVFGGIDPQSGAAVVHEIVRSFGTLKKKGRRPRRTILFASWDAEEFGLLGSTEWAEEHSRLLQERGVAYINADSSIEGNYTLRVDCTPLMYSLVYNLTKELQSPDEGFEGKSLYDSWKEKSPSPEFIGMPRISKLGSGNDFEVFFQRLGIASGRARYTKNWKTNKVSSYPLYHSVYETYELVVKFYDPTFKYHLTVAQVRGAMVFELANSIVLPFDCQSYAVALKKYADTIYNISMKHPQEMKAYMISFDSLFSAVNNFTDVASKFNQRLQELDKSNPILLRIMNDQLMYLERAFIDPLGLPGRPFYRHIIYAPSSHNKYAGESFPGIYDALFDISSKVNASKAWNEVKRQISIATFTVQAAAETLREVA
Sequence of PSMA (Mus musculus, UniProt O35409) (O35409 whole entry): as above

concentrations of 2-PMPA in the kidney compared to an equimolar dose of 2-PMPA [1]: significantly increased
residual kidney uptake relative to baseline [2]: < 10 % of baseline-uptake
residual kidney uptake of 68Ga-PSMA-617 in displacement-scan ([2]; baseline-scan 3.4 mSUV): 0.3 mSUV
kidney uptake of 68Ga-PSMA-617 in displacement-scan ([4]; 0.5 or 0.05 mg/kgBW after baseline scan, baseline mSUV 2.36, saline control mSUV 0.47): 0.24 mSUV
kidney uptake lower than achieved with forced diuresis (saline control) ([4]; displacement-scan, 2 h after tracer): 50%
decrease of maximum 68Ga-PSMA-617 uptake in kidney parenchyma versus representative control ([5]; 5 mg (0.05 mg/kgBW) 15 min before tracer, healthy volunteer): 65%
maximum 68Ga-PSMA-617 uptake in parotid glands ([5]; 5 mg (0.05 mg/kgBW) 15 min before tracer, control without pre-dosing 41.2): 13.5 SUVmax
maximum 68Ga-PSMA-617 uptake in kidney parenchyma ([5]; 5 mg (0.05 mg/kgBW) 15 min before tracer, control without pre-dosing 47.5): 16.5 SUVmax
displacement of 68Ga-PSMA-617 binding to kidney and salivary glands ([5]; pre-administration, healthy human male): approximately 65%
mean change of 68Ga-PSMA-617 uptake in metastases ([6]; 10 mg, i.v., 15 minutes prior to tracer): 3%
68Ga-PSMA-617 uptake in kidneys after pre-treatment [6, 10]: 8.5 SUVmax
68Ga-PSMA-617 uptake in metastases after pre-treatment [6, 10]: 3.9-8.8 SUVmax
68Ga-PSMA-617 uptake in parotid gland after pre-treatment [6, 10]: 10.6 SUVmax
68Ga-PSMA-617 uptake in submandibular gland after pre-treatment [6, 10]: 14.6 SUVmax
effect on tumor uptake of the tracer ([6]; intraindividual comparison, prostate cancer patient): completely spared tumor uptake
177Lu-PSMA-617 absorbed dose, kidneys ([7]; patient 1, 10 mg, i.v.): 0.38 Gy/GBq
177Lu-PSMA-617 absorbed dose, parotid gland ([7]; patient 1, 10 mg, i.v.): 0.24 Gy/GBq
177Lu-PSMA-617 absorbed dose, submandibular gland ([7]; patient 1, 10 mg, i.v.): 0.5 Gy/GBq
177Lu-PSMA-617 mean dose to metastases ([7]; patient 1, 10 mg, i.v.): 8.03 Gy/GBq
177Lu-PSMA-617 absorbed dose, kidneys ([7]; patient 2, 10 mg, i.v.): 0.43 Gy/GBq
177Lu-PSMA-617 absorbed dose, parotid gland ([7]; patient 2, 10 mg, i.v.): 0.46 Gy/GBq
177Lu-PSMA-617 absorbed dose, submandibular gland ([7]; patient 2, 10 mg, i.v.): 0.44 Gy/GBq
177Lu-PSMA-617 mean dose to metastases ([7]; patient 2, 10 mg, i.v.): 13.15 Gy/GBq
effect on liver exposure to 177Lu-PSMA-617 ([7]; pre-treatment): modestly reduce
effect on spleen dose of 177Lu-PSMA-617 ([7]; pre-treatment): no clear effect
dose reduction to the lacrimal glands relative to mean control values ([7]; pre-treatment before 177Lu-PSMA-617): about 82%
effect on the 177Lu-PSMA-617 dose to metastases ([7]; pre-treatment, versus historical controls): little or no effect
dose reduction, salivary glands, relative to historical controls ([7]; two patients, prior to infusion of 177Lu-PSMA-617): 72%
mean absorbed dose reduction, kidneys, relative to historical controls ([7]; two patients, 10 mg, i.v.): 45%
mean absorbed dose reduction, parotid gland, relative to historical controls ([7]; two patients, 10 mg, i.v.): 76%
mean absorbed dose reduction, submandibular gland, relative to historical controls ([7]; two patients, 10 mg, i.v.): 67%
mean absorbed dose reduction, kidneys, relative to historical controls ([7]; two patients, 10 mg, i.v., listed as TRIS-POC-2-PMPA): 48%
Compound: CC(C)OC(=O)OCOC(=O)C(CCC(=O)O)CP(=O)(OCOC(=O)OC(C)C)OCOC(=O)OC(C)C (centres unmarked) [Tris-POC-2-PMPA]
tumor uptake of 68Ga-PSMA-617 in displacement-scan [3]: 1.00 mSUV

uptake in kidneys without pre-treatment [6, 11]: 35.4 SUVmax
uptake in metastases without pre-treatment [6, 11]: 3.6-12.5 SUVmax
uptake in parotid gland without pre-treatment [6, 11]: 18.2 SUVmax
uptake in submandibular gland without pre-treatment [6, 11]: 23.1 SUVmax
Compound: O=C([O-])CN1CCN(CC(=O)[O-])CCN(CC(=O)NC[C@H]2CC[C@H](C(=O)N[C@@H](Cc3ccc4ccccc4c3)C(=O)NCCCC[C@H](NC(=O)N[C@@H](CCC(=O)O)C(=O)O)C(=O)O)CC2)CCN(CC(=O)[O-])CC1.[68Ga+3] [^68Ga-PSMA-617, reference compound]

Compound: O=C([O-])CN1CCN(CC(=O)[O-])CCN(CC(=O)NCC2CCC(C(=O)N[C@@H](Cc3ccc4ccccc4c3)C(=O)NCCCC[C@H](NC(=O)N[C@@H](CCC(=O)O)C(=O)O)C(=O)O)CC2)CCN(CC(=O)[O-])CC1.[177Lu+3] (some centres unmarked) [^177Lu-PSMA-617]
mean effective dose to the lacrimal glands ([8]; Hohberg et al., 2016): 2.82 Gy/GBq
absorbed dose to the kidneys, reported range [8, 12]: 0.53-0.99 Gy/GBq
absorbed dose to the red marrow, reported range [8, 12]: 0.01-0.05 Gy/GBq
absorbed dose to the salivary glands, reported range [8, 12]: 0.72-1.90 Gy/GBq
mean absorbed dose to the kidneys, historical controls [9]: 0.78 Gy/GBq
mean absorbed dose to the red marrow, historical controls [9]: 0.03 Gy/GBq
mean absorbed dose to the salivary glands, historical controls [9]: 1.44 Gy/GBq
